Consider eight compounds from publication PMC12291850, “Morin Flavonoid Interaction with Albumin and Its Nanoparticle Conjugation: An Efficient Antioxidant Vehicle for Nutraceuticals” (Antioxidants, 2025).

Molecules are shown by their SMILES. pKd: −log10 of the molar value. A value given as a limit tells only on which side of the number the result lay.

The nature of series [1]: Encapsulation efficiency in BSA nanoparticles (desolvation, HPLC of supernatant). It is filed as physicochemical. The conditions noted are these: unchanged when co-loaded with morin.
For series [2] the following is noted: cited from earlier work.
Series [3] concerns human serum albumin (HSA). To be noted: fluorescence studies; cited from earlier work.
Series [4] deals with T1, bovine serum albumin (BSA) (Bos taurus, UniProt P02769).
T1 construct: purchased Merck (Darmstadt, Germany)
T1 sequence (P02769 25-607): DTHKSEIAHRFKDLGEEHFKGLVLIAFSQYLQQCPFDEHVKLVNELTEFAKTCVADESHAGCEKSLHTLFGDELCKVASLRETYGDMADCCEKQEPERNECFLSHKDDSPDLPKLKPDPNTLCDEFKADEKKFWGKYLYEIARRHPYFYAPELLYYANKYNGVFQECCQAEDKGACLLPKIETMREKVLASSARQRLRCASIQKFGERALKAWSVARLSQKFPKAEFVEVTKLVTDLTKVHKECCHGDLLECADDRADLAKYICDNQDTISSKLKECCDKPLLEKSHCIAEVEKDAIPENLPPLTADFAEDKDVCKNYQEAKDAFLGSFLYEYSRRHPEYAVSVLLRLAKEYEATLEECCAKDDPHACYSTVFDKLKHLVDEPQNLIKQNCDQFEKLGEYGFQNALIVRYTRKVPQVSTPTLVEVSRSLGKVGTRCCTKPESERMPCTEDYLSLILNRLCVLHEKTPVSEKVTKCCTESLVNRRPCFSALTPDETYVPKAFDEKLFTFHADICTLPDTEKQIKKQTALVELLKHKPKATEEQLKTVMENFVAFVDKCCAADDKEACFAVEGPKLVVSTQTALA
Nature of the series: Fluorescence quenching of BSA by flavonoids (Stern–Volmer, binding equation, van't Hoff). The conditions noted are these: for Stern–Volmer quenching constant (Ksv): excitation 295 nm; for ΔG°: morin: 293–310 K; for Kd: read-out: binding constant (Ka) (converted). On the procedure: Fluorescence quenching spectroscopy was employed to investigate the interaction between bovine serum albumin (BSA) and selected flavonoids, including morin. All measurements were performed using a spectrofluorometer under controlled temperature conditions (25 °C).
To quantify the quenching effect upon encapsulation, the Stern–Volmer equation was applied (Equation (1)):F0/F = 1 + Ksv [Q](1) where F0 and F are the fluorescence intensities of BSA in the absence and presence of quencher (flavonoid), respectively, Ksv is the Stern–Volmer quenching constant, and [Q] is flavonoid concentration.
The binding constant (Ka) and the number of binding sites (n) were calculated using the logarithmic form of the binding equation (Equation (2)):log[(F0 − F)/F] = log Ka + n log[Q](2)
Thermodynamic parameters—Gibbs free energy change (ΔG°) (Equation (3)), enthalpy change (ΔH°), and entropy change (ΔS°)—were determined from the temperature dependence of the binding constant using the van’t Hoff equation (Equation (4)):ΔG° = ΔH° − TΔS°(3) ln Ka = −ΔH°/RT + ΔS°/R(4)

Series [5] addresses T1, bovine serum albumin (BSA). Description: Surface plasmon resonance (SPR) analysis of albumin–morin interaction. In kind it is binding. On the procedure:
Gold-coated sensor chips were first cleaned and subsequently modified with a self-assembled monolayer (SAM) of 4-mercaptobenzoic acid (4-MBA) to introduce carboxyl functional groups on the sensor surface.
Non-reacted sites were blocked with 1 M ethanolamine (pH 8.5).
Sensorgrams were recorded in real time, and binding responses were referenced against control channels and buffer-only injections.
Equilibrium binding data were analyzed using Langmuir isotherm models to estimate the apparent association constant (Ka), dissociation constant (Kd), and maximum binding response (Rmax). Data fitting and kinetic analysis were performed using the instrument’s integrated software suite.

Series [6] is described as follows: Photolysis and photooxidation (hydroxyl radical from H2O2 under UV 254 nm) of morin, HPLC-DAD. In kind it is physicochemical. On the procedure: Morin was incorporated into the system by adding small aliquots of a stock solution in ethanol, ensuring the final ethanol concentration remained below 2% (v/v) to avoid solvent-induced effects on photoreactivity. Oxidative conditions were simulated by the addition of hydrogen peroxide to a final concentration of 0.5% (w/v), serving as a source of hydroxyl radicals upon UV activation. Each reaction mixture was vortexed to ensure homogeneity and subsequently transferred into 5 mL double-jacketed quartz cuvettes. The outer surface of each cuvette was coated with opaque black paint to prevent ambient light interference, except for a centrally located circular window (1 cm diameter) designed to permit focused irradiation. A circulating water bath maintained the cuvette temperature at 20 ± 0.5 °C. Photolysis was carried out using a high-power mercury UV lamp emitting at 254 nm. […] Quantitative analysis of morin degradation and spectral changes associated with hydroxyl radical attack was performed using high-performance liquid chromatography with diode array detection (HPLC-DAD) and UV–visible spectrophotometry.
(§1) A high-performance liquid chromatography (HPLC) method was developed and validated to quantify morin for the subsequent evaluation of encapsulation efficiency, drug loading capacity, physicochemical stability, photodegradation under ultraviolet (UV) exposure, and hydroxyl radical scavenging activity. Chromatographic analyses were conducted using a Shimadzu LC-20AT HPLC system (Shimadzu, Kyoto, Japan), equipped with a SIL-20A autosampler and an SPD-M20A photodiode array (PDA) detector. Separation was achieved on a C18 ODS Hypersil column (250 mm × 4.6 mm, 5 μm particle size; Agilent Technologies, Santa Clara, CA, USA). The mobile phase consisted of acetonitrile and 0.1% trifluoroacetic acid in water (30:70, v/v), delivered under isocratic conditions at a flow rate of 1.0 mL/min. The injection volume was set at 20 μL. Morin detection was performed at a wavelength of 360 nm using the PDA detector. The method was optimized to ensure adequate peak resolution, retention time reproducibility, and sensitivity for low-concentration samples. This analytical approach was employed throughout the study to monitor morin concentration in various experimental settings, including nanoparticle formulations and stability assays.

The target of series [7] is T1, bovine serum albumin (BSA). Nature of the series: Circular dichroism of BSA with morin under oxidative conditions. The conditions noted are these: morin 10 and 20 µM, UV irradiation and hydrogen peroxide. On the procedure: Measurements were performed using a J-1500 CD spectropolarimeter (JASCO, Tokyo, Japan) equipped with a temperature-controlled cell holder maintained at 25 °C. Spectra were acquired using a 0.1 cm path length quartz cuvette. Each spectrum represents the average of three consecutive scans, recorded at a scanning speed of […] with a response time of 1 s. […] For oxidative conditions, hydrogen peroxide was added to a final concentration of 0.5% (w/v) to promote hydroxyl radical generation. All solutions were prepared in 10 mM phosphate buffer at pH 7.4 and allowed to equilibrate for 15 min before measurement. Spectra were corrected by subtracting the baseline of the corresponding buffer or hydrogen peroxide control solution.

A short description of series [8]: Encapsulation efficiency in BSA nanoparticles (desolvation, HPLC of supernatant). In kind it is physicochemical. On the procedure:
as §1
The impact of other antioxidant molecules (ellagic acid and tocopherol succinate) on the behavior of morin encapsulated in BSA nanoparticles in an intestinal environment was assessed through in vitro loading and release experiments. […] Then, ethanol was added dropwise under constant stirring, followed by the addition of 20 µL of an 8% glutaraldehyde solution [25]. The final volume of the mixture was adjusted to 10 mL. After 24 h, the nanoparticles were collected by centrifugation (13,500 rpm, 20 min, and 25 °C) and washed with water. The supernatant was separated for further analysis. To incorporate ellagic acid or tocopherol succinate, each compound—either individually or in combination—was included in the ethanol phase during the dropwise addition. The rest of the procedure remained unchanged. The encapsulation efficiency (%EE) was calculated using Equation (5):(5) %EE=Mi−Mf/Mi×100 where Mi and Mf correspond to the initial amount of morin added during the loading process and the free morin in the supernatant, respectively.

Details of series [9]: method as in doi:10.1039/C6RA20441D. To be noted: cited from earlier work.
The mark [10] stands for this setting: BSA fluorescence quenching, 25 °C.
The mark [11] stands for this setting: flavonoid–BSA complex, van't Hoff analysis.
Setting [12] is: BSA nanoparticles prepared via desolvation.

For the compound `O=c1oc2cc(O)ccc2c2oc3cc(O)ccc3c12` [coumestrol], the “encapsulation efficiency of coumestrol” value in [1] is 22.4% ± 0.1%. The “encapsulation efficiency in BSA nanoparticles” value in series [2] (previous studies) is reported as 22.4% ± 0.1%.
As for `O=C(/C=C/c1ccc(O)c(O)c1)O[C@H](Cc1ccc(O)c(O)c1)C(=O)O` [rosmarinic acid], in series [3], the “association constant (K)” value was ~10^7 M^−1.
Regarding `O=c1c(-c2ccc(O)cc2)coc2cc(O[C@@H]3O[C@H](CO)[C@@H](O)[C@H](O)[C@H]3O)cc(O)c12` [genistin], the “number of binding sites (n)” value in series [4] (BSA fluorescence quenching) is on record as 0.94 ± 0.01. In addition, in [4] (setting [10]), the “bimolecular quenching rate constant (kq)” value is 3.66 × 10^12 ± 0.04 L mol^−1 s^−1 and the “Stern–Volmer quenching constant (Ksv)” value is 3.66 × 10^4 ± 0.05 L mol^−1. Further, in series [4] (setting [11]), the “ΔG°” value was “–26.9 kJ·mol^−1”. For the same compound, in [4], the Kd was 29.5 µM.
For the compound `O=c1c(O)c(-c2ccc(O)c(O)c2)oc2cc(O)cc(O)c12` [quercetin], the “number of binding sites (n)” value in [4] (BSA fluorescence quenching) is reported as 1.13 ± 0.02. In series [4] (setting [10]), the “bimolecular quenching rate constant (kq)” value is on record as 1.88 × 10^13 ±0.03 L mol^−1 s^−1 and the “Stern–Volmer quenching constant (Ksv)” value was 1.88 × 10^5 ± 0.02 L mol^−1.
`O=c1c(O)c(-c2ccc(O)c(O)c2)oc2cc(O)ccc12` [fisetin]: in series [2] (setting [12]), the average particle size is recorded as 200 ± 8 nm and the encapsulation efficiency is 84%.
For `O=c1c(-c2ccc(O)cc2)coc2cc(O)cc(O)c12` [genistein], the pKd in [4] is 4.94. Further, the “number of binding sites (n)” value in [4] (BSA fluorescence quenching) was 1.22 ± 0.04. Also, in series [4] (setting [10]), the “bimolecular quenching rate constant (kq)” value is 8.11 × 10^12 ± 0.04 L mol^−1 s^−1 and the “Stern–Volmer quenching constant (Ksv)” value is 8.11 × 10^4 ± 0.02 L mol^−1.
Turning to `O=c1c(O)c(-c2ccc(O)cc2O)oc2cc(O)cc(O)c12` [morin, 3,5,7,2′,4′-pentahydroxyflavone], the pKd in series [4] was 5.27; in [5], 3.55. Moreover, the “number of binding sites (n)” value in [4] (BSA fluorescence quenching) is given as 1.10 ± 0.02. The “bimolecular quenching rate constant (kq)” value in series [4] (setting [10]) is reported as 1.76 × 10^13 ± 0.02 L mol^−1 s^−1. For the same compound, in [4] (setting [10]), the “binding constant (Ka)” value is 187000 L/mol. Besides, the “Stern–Volmer quenching constant (Ksv)” value in [4] (setting [10]) is on record as 1.76 × 10^5 ± 0.03 L mol^−1. For the same compound, the “ΔH°” value in series [4] (setting [11]) is “–28.7 kJ·mol^−1”. For the same compound, the “ΔS°” value in series [4] (setting [11]) was found to be 4.75 J·mol^−1·K^−1. In addition, the “ΔG°” value in series [4] (setting [11]) was “approximately –30.1 kJ·mol^−1”. In addition, the “initial morin concentration retained” value in [6] (UV exposure with hydrogen peroxide, 10 min, 2 µM BSA, pH 7.4) was found to be 79%. The morin concentration remaining in series [6] (UV exposure with hydrogen peroxide, 10 min, absence of BSA, pH 7.4) turned out to be 61.5%. In series [6] (UV photolysis, 10 min, absence of BSA, phosphate buffer pH 7.4), the “initial morin concentration remaining” value stood at 94.9%. Besides, the “improvement in morin retention compared to the system without BSA” value in series [6] (photooxidation 10 min, 2 µM BSA) came out at 17.5%. Further, in series [7], the “effect on BSA secondary structure (CD ellipticity at 208 and 222 nm)” value is given as “no significant loss of α-helical structure”. The “%EE of morin” value in [8] (BSA nanoparticles co-loaded with both ellagic acid and tocopherol succinate) was 80%; in [8] (BSA nanoparticles co-loaded with ellagic acid), 76%; in [8] (BSA nanoparticles co-loaded with tocopherol succinate), 72.6%; in series [8] (encapsulated alone in BSA nanoparticles (comparison with coumestrol co-loading)), 20.5% ± 3.0%. In addition, the “%EE” value in series [8] (initial [Morin] 0.128 mM) worked out at 25.97 ± 4.29%; in [8] (initial [Morin] 0.222 mM), 20.42 ± 0.67%; in series [8] (initial [Morin] 0.308 mM) it was 19.31 ± 0.42%; in series [8] (initial [Morin] 0.507 mM), 20.99 ± 0.27%; in series [8] (initial [Morin] 1.478 mM), 18.94 ± 0.85%. For the same compound, the Morin/BSA molar ratio in series [8] (initial [Morin] 0.128 mM) is recorded as 0.30 ± 0.05; in series [8] (initial [Morin] 0.222 mM), 0.48 ± 0.02; in series [8] (initial [Morin] 0.308 mM) it was 0.68 ± 0.01; in series [8] (initial [Morin] 0.507 mM), 0.98 ± 0.01; in series [8] (initial [Morin] 0.634 mM), 1.01 ± 0.04; in [8] (initial [Morin] 1.478 mM) it was 1.48 ± 0.07. The “encapsulation efficiencies (maximum)” value in [8] (morin in BSA nanoparticles prepared by desolvation) is listed as “up to 26%”. Also, in series [9] (72 h, pH 7.4), the extended release entry is reported as “up to 80%”. In addition, the “initial 6 h release” value in series [9] (stated for both this study (SIF) and the literature study (pH 7.4)) is < 40%.
Take `O=c1c(O)c(-c2ccc(O)cc2)oc2cc(O)cc(O)c12` [kaempferol]: the “number of binding sites (n)” value in series [4] (BSA fluorescence quenching) is given as 1.33 ± 0.03. Further, in series [4] (setting [10]), the “bimolecular quenching rate constant (kq)” value was 2.23 × 10^13 ± 0.02 L mol^−1 s^−1 and the “Stern–Volmer quenching constant (Ksv)” value is listed as 2.23 × 10^5 ± 0.03 L mol^−1. Moreover, the Kd in series [4] was 5.99 µM.
